Measurements from publication PMC8837726 (Chirality, 2021).
Read-outs that look alike come from different tables or passages of the source.

Experiments:
[1] = system: GLP-1 secretion from mouse secretin tumor (mSTC-1) intestinal enteroendocrine cells; test: ELISA primary assay: GLP-1 secretion from mSTC-1 cells, percent stimulation; assay type: cell-based; conditions: for mSTC-1 GLP1 Sec %Stim@2 μM: 2 μM test compound; for mSTC-1 GLP1 Sec %Stim@2 μM / mSTC-1 GLP1 Sec %Stim@20 μM: mSTC-1 cells, ELISA; for mSTC-1 GLP1 Sec %Stim@20 μM: 20 μM test compound; for activation at 20 µM: Mus musculus, read-out: mSTC-1 GLP1 Sec %Stim@20 μM
[2] = system: GLP-1 secretion from mSTC-1 cells; test: Concentration-response curve; assay type: cell-based, mouse
[3] = system: GLP-1 release from hNCI-H716 colorectal adenocarcinoma cell line; test: CRC EC50 in GLP-1 release from hNCI-H716 cells; assay type: cell-based; conditions: Homo sapiens, read-out: hNCI-H716 GLP1 Sec CRC EC50
in vitro [4] = conditions: mouse, mSTC-1 cells
in vitro [5] = conditions: human, hNCI-H716 colorectal adenocarcinoma cells
[6] = Mus musculus, read-out: mSTC-1 GLP1 Sec CRC EC50, mSTC-1 cells, concentration-response curve
[7] = read-out: mSTC-1 GLP1 Sec CRC EC50, mSTC-1 cells, concentration-response curve

| SMILES | mSTC-1 GLP1 Sec %Stim@2 μM [1] | mSTC-1 GLP1 Sec %Stim@20 μM [1] | EC50 [2, 6] | EC50 [2, 7] | EC50 [3] | EC50 (in vitro [4]) | EC50 (in vitro [5]) | activation at 20 µM [1] |
| --- | --- | --- | --- | --- | --- | --- | --- | --- |
| COc1ccc2c(c1)[C@@H](NC(=O)OCc1ccccc1)[C@H](C)[C@@H](c1ccccc1)N2 [Compound 5a, benzyl (2S,3R,4S)-6-methoxy-3-methyl-2-phenyl-1,2,3,4-tetrahydroquinolin-4-ylcarbamate] | 2% | 68% | < 10 µM | 5.3 µM | > 40 µM | > 40 µM | > 40 µM | – |
| COc1ccc2c(c1)[C@@H](NC(=O)OCc1ccccc1)[C@H](C)[C@@H](C(C)C)N2 [Compound 5b, Benzyl ((2R,3R,4S)-2-isopropyl-6-methoxy-3-methyl-1,2,3,4-tetrahydroquinolin-4-yl)carbamate] | 0% | 98% | 10.8 µM | – | > 40 µM | > 40 µM | > 40 µM | – |
| CC[C@H]1Nc2ccc(NC(=O)OC(C)(C)C)cc2[C@@H](NC(=O)OCc2ccccc2)[C@@H]1C [Compound 5e, Benzyl tert-butyl ((2R,3R,4S)-2-ethyl-3-methyl-1,2,3,4-tetrahydroquinoline-4,6-diyl)dicarbamate] | – | – | – | – | – | – | – | 0% |
| COc1ccc2c(c1)[C@@H](NC(=O)OCc1ccccc1)[C@H](C)[C@@H](c1cccnc1)N2 [Compound 5f, Benzyl (2S,3R,4S)-6-methoxy-3-methyl-2-(pyridin-3-yl)-1,2,3,4-tetrahydroquinolin-4-ylcarbamate] | 0% | 22% | – | – | – | – | – | – |
| COc1ccc2c(c1)[C@@H](NC(=O)OCc1ccccc1)[C@H](C)[C@@H](c1ccccc1)N2Cc1cccc(F)c1 [Compound 6a, Benzyl(2S,3S,4S)-1-(3-fluorobenzyl)-6-methoxy-3-methyl-2phenyl-1,2,3,4-tetrahydroquinolin-4-ylcarbamate] | 8% | 40% | > 40 µM | – | > 40 µM | > 40 µM | > 40 µM | – |
| COc1ccc2c(c1)[C@@H](NC(=O)OCc1ccccc1)[C@H](C)[C@@H](c1ccccc1)N2Cc1ccccn1 [Compound 6c, Benzyl (2S,3S,4S)-6-methoxy-3-methyl-2-phenyl-1-(pyridin-2-ylmethyl)-1,2,3,4-tetrahydroquinolin-4-ylcarbamate] | – | – | – | – | – | – | – | 0% |
| COc1ccc2c(c1)[C@@H](NC(=O)OCc1ccccc1)[C@H](C)[C@@H](c1ccccc1)N2C(=O)NC(C)C [Compound 6g, Benzyl ((2S,3S,4S)-1-(isopropylcarbamoyl)-6-methoxy-3-methyl-2-phenyl-1,2,3,4-tetrahydroquinolin-4-yl)carbamate] | – | – | – | – | – | – | – | 0% |
| COc1ccc2c(c1)[C@@H](NCc1nccs1)[C@H](C)[C@@H](c1ccccc1)N2C(=O)NC(C)C [Compound 8d, (2S,3S,4S)-N-Isopropyl-6-methoxy-3-methyl-2-phenyl-4-((thiazol-2-ylmethyl)amino)-3,4-dihydroquinoline-1(2H)-carboxamide] | 0% | 28% | > 40 µM | – | > 40 µM | > 40 µM | > 40 µM | – |
| COc1ccc2c(c1)[C@@H](NCc1ccccn1)[C@H](C)[C@@H](c1ccccc1)N2C(=O)NC(C)C [Compound 8e, (2S,3S,4S)-N-isopropyl-6-methoxy-3-methyl-2-phenyl-4-((pyridin-2-ylmethyl)amino)-3,4-dihydroquinoline-1(2H)-carboxamide] | – | – | – | – | – | – | – | 0% |
| COc1ccc2c(c1)[C@@H](NC(=O)c1c(C)noc1C)[C@H](C)[C@@H](c1ccccc1)N2C(=O)NC(C)C [Compound 8f, N-((2S,3S,4S)-1-(Isopropylcarbamoyl)-6-methoxy-3-methyl-2-phenyl-1,2,3,4-tetrahydroquinolin-4-yl)-3,5-dimethylisoxazole-4-carboxamide] | – | – | – | – | – | – | – | 0% |
| COc1ccc2c(c1)[C@@H](NC(C)=O)[C@H](C)[C@@H](c1ccccc1)N2C(=O)Nc1ccc(C(F)(F)F)cc1 [Compound 8i, (2S,3S,4S)-4-Acetamido-6-methoxy-3-methyl-2-phenyl-N-(4-(trifluoromethyl)phenyl)-3,4-dihydroquinoline-1(2H)-carboxamide] | – | – | – | – | – | – | – | 0% |
| COc1ccc2c(c1)[C@@H](NC(=O)c1c(C)noc1C)[C@H](C)[C@@H](c1ccccc1)N2Cc1cccc(F)c1 [Compound 8j, N-((2S,3S,4S)-1-(3-Fluorobenzyl)-6-methoxy-3-methyl-2-phenyl-1,2,3,4-tetrahydroquinolin-4-yl)-3,5-dimethylisoxazole-4-carboxamide] | – | – | – | – | – | – | – | 0% |
| COc1ccc2c(c1)[C@@H](NS(C)(=O)=O)[C@H](C)[C@@H](c1ccccc1)N2Cc1cccc(F)c1 [Compound 8k, N-((2S,3R,4S)-1-(3-Fluorobenzyl)-6-methoxy-3-methyl-2-phenyl-1,2,3,4-tetrahydroquinolin-4-yl)methanesulfonamide] | 0% | 53% | < 10 µM | 8.3 µM | > 40 µM | > 40 µM | > 40 µM | – |
| CC[C@H]1Nc2ccc(OC)cc2[C@@H](NS(C)(=O)=O)[C@@H]1C [Compound 8l, N-((2R,3R,4S)-2-Ethyl-6-methoxy-3-methyl-1,2,3,4-tetrahydroquinolin-4-yl)methanesulfonamide] | – | – | – | – | – | – | – | 0% |
| COc1ccc2c(c1)[C@@H](NS(C)(=O)=O)[C@H](C)[C@@H](C(C)C)N2 [Compound 8m, N-((2R,3R,4S)-2-Isopropyl-6-methoxy-3-methyl-1,2,3,4-tetrahydroquinolin-4-yl)methanesulfonamide] | – | – | – | – | – | – | – | 0% |
| CC[C@H]1Nc2ccc(OC)cc2[C@@H](NCc2nccs2)[C@@H]1C [Compound 8n, (2R,3R,4S)-2-Ethyl-6-methoxy-3-methyl-N-(thiazol-2-ylmethyl)-1,2,3,4-tetrahydroquinolin-4-amine] | 0% | 49% | 26.1 µM | – | > 40 µM | > 40 µM | > 40 µM | – |
| COc1ccc2c(c1)[C@@H](NCc1nccs1)[C@H](C)[C@@H](C(C)C)N2 [Compound 8o, (2R,3R,4S)-2-Isopropyl-6-methoxy-3-methyl-N-(thiazol-2-ylmethyl)-1,2,3,4-tetrahydroquinolin-4-amine] | 0% | 61% | 16.9 µM | – | > 40 µM | > 40 µM | > 40 µM | – |
| COc1ccc2c(c1)[C@@H](N(Cc1nccs1)Cc1nccs1)[C@H](C)[C@@H](C(C)C)N2 [Compound 8p, (2R,3R,4S)-2-Isopropyl-6-methoxy-3-methyl-N,N-bis(thiazol-2-ylmethyl)-1,2,3,4-tetrahydroquinolin-4-amine] | 0% | 80% | 21.9 µM | – | > 40 µM | > 40 µM | > 40 µM | – |
| CC[C@H]1Nc2ccc(NC(C)=O)cc2[C@@H](NS(C)(=O)=O)[C@@H]1C [Compound 8q, N-((2R,3R,4S)-2-Ethyl-3-methyl-4-(methylsulfonamido)-1,2,3,4-tetrahydroquinolin-6-yl)acetamide] | 0% | 18% | – | – | – | – | – | – |
| C[C@@H]1[C@@H](c2ccccc2)Nc2ccc(-c3ccccc3)cc2[C@H]1NC(=O)OCc1ccccc1 [Compound 9, Benzyl (2S,3R,4S)-3-methyl-2,6-diphenyl-1,2,3,4-tetrahydroquinolin-4-ylcarbamate] | 82% | 99% | 2.2 µM | – | > 40 µM | > 40 µM | > 40 µM | – |
